Counter-ions that a name gives are not always drawn. Like-named read-outs stand apart in the source and are kept apart here.
Key:
Assay type in all cases: cell-based
[1] = tested on: E. coli (ATCC 25922); assay: MIC determination, sensitization fold and FIC index on E. coli; conditions: for MIC of AB with MD-124: MD-124 concentration 5 μg/ml; for MIC: Escherichia coli; for Sensitization: compound up to 25 μM
Description: Bacteria culture and MICs determination: Gram-negative bacteria were cultured in Mueller Hinton II cation-adjusted broth. Gram-positive bacteria were cultured in LB broth. Mycobacterium smegmatis was cultured in Middlebrook 7H9 Broth. MICs of antibiotics itself were determined by performing two-fold serial dilutions of antibiotics. MICs of antibiotics in the presence of bacterial sensitizers were determined by performing two-fold serial dilutions of antibiotics with or without a constant concentration of bacterial sensitizers. The MICs tests were performed on 96-well plates with a final volume of 200 μl Mueller Hinton II cation-adjusted broth in each well. Each well was inoculated with 5×10^5 CFU/ml bacteria and was incubated for 24 h at 37° C. with continuous shaking of 200 rpm. The bacterial density was then determined by OD600. Bacterial growth %=OD600 of antibiotic treatment group/OD600 of antibiotic non-treatment group. MICs was determined as the concentrations that inhibit more than 90% of bacteria growth.
Sensitization fold determination and FIC index calculations: Sensitization fold=MIC of antibiotic only/MIC of antibiotic with bacterial sensitizer. […] Since the MICs were determined by performing two-fold serial dilutions of antibiotic, so the sensitization fold can is the times of 2.
FIC index between compound a and b was calculated according to the formula below: […]
FIC≤0.5: Synergy; FIC between 0.5 and 1: Additive; FIC between 1 and […]: no interaction; FIC >4: antagonism.
Bacteria strains (as indicated in Table 5B) were cultured with rifampicin at various concentrations in the presence or absence of 10 μM of the indicated compound for 20 h at 37° C. The MIC, sensitization, cytotoxicity, and MIC on mycobacteria were tested according to methods described herein. […] The sensitization activities of compounds on MRSA were tested using rifampicin. The sensitization activities of compounds on E. coli were tested using rifampicin.

[2] = Cytotoxicity in H9c2 cells (CCK-8); conditions: rat, H9c2 cells; H9c2 cell line
Description: The cytotoxicity in H9c2 (ATCC®CRL-1446™) cells was also determined. The H9c2 cells were maintained in DMEM (Dulbecco's Modified Eagle's Medium) supplemented with 10% fetal bovine serum (MidSci; S01520HI) and 1% penicillin-streptomycin (Sigma-Aldrich; P4333) at 37° C. with 5% CO2. The H9c2 cells were seeded in 96-well plate one day before the experiment. Different concentrations of di-amidine compounds were added into the H9c2 cells. The cells were then incubated with the compounds for 24 hours at 37° C. with 5% CO2. The cell viability was tested by the CCK-8. Specifically, after 24 hour incubation, 10 μL CCK-8 was added to each well. After 3 hours incubation at 37° C., the absorbance at 450 nm was recorded by a plate reader.

[3] = tested on: B. subtilis; assay: MIC determination and sensitization fold on B. subtilis; conditions: for MIC: Bacillus subtilis, 24 h, compound alone, read-out: MIC; for sensitization fold with 5.5 μg/ml DB2560: B. subtilis towards the antibiotic
[4] = E. coli towards the antibiotic, MD-124 5 μg/ml
[5] = ATCC25922, 24 h, E. coli (wild type), antibiotic alone, read-out: MIC of AB only
[6] = ATCC25922, 24 h, E. coli, compound alone, read-out: MIC
[7] = B. subtilis, erythromycin, compound at 6 μM
[8] = E. coli, rifampicin, compound at 25 μM
[9] = B. subtilis, erythromycin, compound at 12 μM
[10] = E. coli, rifampicin, compound at 10 μM

| Molecule | Sensitization fold [1, 4] | MIC of AB with MD-124 ([1]; E. coli) | MIC [1, 5] | CC50 at 24 h [2] | Sensitization ([1]; E. coli, rifampicin) | MIC [1, 6] | other results |
| --- | --- | --- | --- | --- | --- | --- | --- |
| CC[C@H]1OC(=O)[C@H](C)[C@@H](O[C@H]2C[C@@](C)(OC)[C@@H](O)[C@H](C)O2)[C@H](C)[C@@H](O[C@@H]2O[C@H](C)C[C@H](N(C)C)[C@H]2O)[C@](C)(O)C[C@@H](C)CN(C)[C@H](C)[C@@H](O)[C@]1(C)O [Azithromycin, reference compound] | 16 fold | 400 ng/mL | 6200 ng/mL | – | – | – | – |
| N[C@@H]1CCCCN(c2c(F)cc3c(=O)c(C(=O)O)cn(C4CC4)c3c2Cl)C1 [Besifloxacin, reference compound] | 8 fold | 12.5 ng/mL | 100 ng/mL | – | – | – | – |
| Cc1onc(-c2ccccc2Cl)c1C(=O)N[C@@H]1C(=O)N2[C@@H]1SC(C)(C)[C@@H]2C(=O)O [Cloxacillin, reference compound] | >4 fold | 75000 ng/mL | > 300000 ng/mL | – | – | – | – |
| N=C(N)c1ccc(OCOc2ccc(C(=N)N)cc2)cc1 [DB1824] | – | – | – | > 100 µM | No effect up to 25 μM | > 100 µM | Sensitization fold ([3]; B. subtilis, erythromycin, compound at 12.5 μM): 2-fold at 12.5 μM,; MIC ([3]; B. subtilis): 12.5 µM |
| N=C(N)c1ccc(OCCCCCCOc2ccc(C(=N)N)cc2)cc1 [DB2362] | – | – | – | 25 µM | – | 50 µM | Sensitization fold [3, 7]: 4-fold at 6 μM; Sensitization fold [1, 8]: 8-fold at 25 μM; |
| N=C(N)c1ccc(OCc2cccc(COc3ccc(C(=N)N)cc3)n2)cc1 [DB2447] | – | – | – | > 100 µM | No effect up to 25 μM | 100 µM | Sensitization fold ([3]; B. subtilis, erythromycin, compound at 2 μM): No effect at 2 μM. |
| N=C(N)c1ccc(OCc2cccc(COc3ccc(C(N)=O)cc3)n2)cc1 [DB2449] | – | – | – | > 100 µM | No effect up to 25 μM | > 100 µM | Sensitization ([3]; B. subtilis, erythromycin, compound up to 25 μM): No effect up to 25 μM; MIC ([3]; B. subtilis): > 50 µM |
| Fc1c(COc2ccc(C3=NCCN3)cc2)cccc1COc1ccc(C2=NCCN2)cc1 [DB2510, 1,3-Bis {(4-(2-imidazolino))-phenoxymethyl}-2-fluorobenzene dihydrochloride] | – | – | – | 25 µM | No effect up to 25 μM | > 50 µM | – |
| c1cc(COc2ccc(C3=NCCN3)cc2)cc(COc2ccc(C3=NCCN3)cc2)c1 [DB2538, 1,3-Bis {(4-(2-imidazolino))-phenoxymethyl}-benzene dihydrochloride] | – | – | – | < 12.5 µM | No effect up to 25 μM | > 50 µM | Sensitization fold [3, 9]: 4-fold at 12 μM; MIC ([3]; B. subtilis): > 50 µM |
| Fc1cc(C2=NCCN2)ccc1OCc1cccc(COc2ccc(C3=NCCN3)cc2F)c1F [DB2554, 1,3-Bis {4-(2-imidazolino)-2-fluoro)-phenoxy methyl}-2-fluorobenzene dihydrochloride] | – | – | – | 50 µM | No effect up to 25 μM | > 50 µM | – |
| COc1cc(C2=NCCN2)ccc1OCc1cccc(COc2ccc(C3=NCCN3)cc2OC)c1F [DB2555, dihydrochloride] | – | – | – | 50 µM | No effect up to 25 μM | > 50 µM | – |
| Cc1cc(-c2nc3cc(C(=N)N)ccc3n2C)sc1-c1ccc(OCCCCOc2ccc(C(=N)N)cc2)cc1 [DB2583] | – | – | – | 12.5 µM | No effect up to 25 μM | 100 µM | Sensitization fold [3, 9]: 16-fold at 12 μM; MIC ([3]; B. subtilis): 25 µM |
| CC[C@H]1OC(=O)[C@H](C)[C@@H](O[C@H]2C[C@@](C)(OC)[C@@H](O)[C@H](C)O2)[C@H](C)[C@@H](O[C@@H]2O[C@H](C)C[C@H](N(C)C)[C@H]2O)[C@](C)(O)C[C@@H](C)C(=O)[C@H](C)[C@@H](O)[C@]1(C)O [Erythromycin, reference compound] | – | 400 ng/mL | – | – | – | – | MIC of erythromycin in the absence of DB2560 ([3]; B. subtilis): 0.05 ng/mL; MIC of erythromycin in the presence of DB2560 ([3]; B. subtilis): 0.0015 ng/mL; MIC ([1]; ATCC25922, read-out: MIC of erythromycin in the presence of 10 μg/ml MD-100, wild-type E. coli): 1600 ng/mL |
| C[C@H]1COc2c(N3CCN(C)CC3)c(F)cc3c(=O)c(C(=O)O)cn1c23 [Levofloxacin, reference compound] | 8 fold | 6.2 ng/mL | 50 ng/mL | – | – | – | – |
| Cc1ccc(COc2ccc(C(=N)N)cc2)cc1COc1ccc(C(=N)N)cc1 [MD-119, 1,3-Bis {(4-amidino)-phenoxymethyl}-6-methylbenzene dihydrochloride] | – | – | – | – | – | – | Sensitization fold [3, 7]: 16-fold at 6 μM; Sensitization fold [3, 9]: 32-fold at 12 μM,; MIC ([3]; B. subtilis): 25 µM; Sensitization fold ([1]; E. coli, rifampicin, compound at 12.5 μM): 4-fold at 12.5 μM.; Sensitization fold [1, 8]: 32-fold at 25 μM,; MIC ([1]; ATCC25922, 24 h): 100 µM |
| N=C(N)c1ccc(COc2cc(OCc3ccc(C(=N)N)cc3F)cc(C(F)(F)F)c2)c(F)c1 [MD-127, dihydrochloride] | – | – | – | – | – | 100 µM | Sensitization fold [1, 10]: 516-fold at 10 μM |
| N=C(N)c1ccc(CCc2cc(CCc3ccc(C(=N)N)cc3)cc(C(F)(F)F)c2)cc1 [MD-128, 1,3-Bis {(4-amidino)-phenethyl}-5-trifluoromethylbenzene dihydrochloride] | – | – | – | – | – | – | Sensitization fold [1, 10]: 516-fold at 10 μM; MIC ([1]; ATCC25922, 24 h): 100 µM |
| COc1c(N2C[C@@H]3CCCN[C@@H]3C2)c(F)cc2c(=O)c(C(=O)O)cn(C3CC3)c12 [Moxifloxacin, reference compound] | 8 fold | 6.2 ng/mL | 50 ng/mL | – | – | – | – |
| CO[C@H]1/C=C/O[C@@]2(C)Oc3c(C)c(O)c4c(O)c(c(/C=N/N5CCN(C6CCCC6)CC5)c(O)c4c3C2=O)NC(=O)/C(C)=C\C=C\[C@H](C)[C@H](O)[C@@H](C)[C@@H](O)[C@@H](C)[C@H](OC(C)=O)[C@@H]1C [Rifapentine, reference compound] | 32 fold | 800 ng/mL | 25000 ng/mL | – | – | – | – |
| CO[C@H]1/C=C/O[C@@]2(C)Oc3c(C)c(O)c4c(O)c(c5c(nc6cc(C)ccn65)c4c3C2=O)NC(=O)/C(C)=C\C=C\[C@H](C)[C@H](O)[C@@H](C)[C@@H](O)[C@@H](C)[C@H](OC(C)=O)[C@@H]1C [Rifaximin, reference compound] | 64 fold | 200 ng/mL | 12500 ng/mL | – | – | – | – |
| C[C@@H](O)[C@H]1C(=O)N2C(C(=O)O)=C(S[C@@H]3CN[C@H](C(=O)Nc4cccc(C(=O)O)c4)C3)[C@H](C)[C@H]12 [entrapenem, reference compound] | – | – | – | – | – | – | sensitization fold with 5.5 μg/ml DB2560 [3]: 4 fold |
| COc1cccc(OC)c1C(=O)N[C@@H]1C(=O)N2[C@@H]1SC(C)(C)[C@@H]2C(=O)O [methicillin, reference compound] | – | – | – | – | – | – | sensitization fold with 5.5 μg/ml DB2560 [3]: 4 fold |
| polymyxin B nonapeptide [PMBN, reference compound] | – | – | – | – | – | – | Sensitization fold ([1]; E. coli, rifampicin, 20 μg/ml bacterial sensitizer): 16 fold |

Reference: patent US20230105108A1, “COMPOUNDS FOR THE TREATMENT OF BACTERIAL INFECTIONS AND POTENTIATION OF ANTIBIOTICS” (GEORGIA STATE UNIVERSITY RESEARCH FOUNDATION, INC., priority 2019, published 2023)
